“Also recorded” adds a separate entry of the source. No end group written: not given here.
Legend:
HsUFM1 = assay: Native mass spectrometry (nMS) complex formation with HsUFM1; format: binding, Homo sapiens; settings: HsUFM1 5 μM, peptide 25 μM
Procedure: Proteins were buffer exchanged into ammonium acetate using BioRad Micro Bio‐Spin 6 Columns. Native mass spectrometry experiments were carried out on a Synapt G2Si instrument (Waters, Manchester, UK) with a nanoelectrospray ionization source (nESI). Mass calibration was performed by a separate infusion of NaI cluster ions. Solutions were ionized from a thin‐walled borosilicate glass capillary (i.d. 0.78 mm, o.d. 1.0 mm, Sutter Instrument Co., Novato, CA, USA) pulled in‐house to nESI tip with a Flaming/Brown micropipette puller (Sutter Instrument Co., Novato, CA, USA). A potential of 0.8 kV was applied to the solution via a thin platinum wire (diameter 0.125 mm, Goodfellow, Huntingdon, UK). The following instrument parameters were used: capillary voltage 0.8 kV, sample cone voltage 40 V, source offset 60 V, source temperature 40°C, trap collision energy 4.0 V, and trap gas 3 ml/min. Data were processed using Masslynx V4.2 and OriginPro 2021.

[1] = test system: GST-HsUFM1 / mCh-HsC53 interaction; assay: On-bead competition of the HsUFM1-HsC53 interaction; format: binding, Homo sapiens; settings: 1 μM HsC53; cAIM peptide 0-100 μM; UBA5 LIR peptide or GABARAP 100 μM
Procedure: (§1) Glutathione‐Sepharose 4B bead slurry (Cytiva, average diameter 90 μm) was washed and diluted 10 times in HEPES buffer (25 mM HEPES pH 7.5, 150 mM NaCl, 1 mM DTT). The beads were then incubated for 30 min at 4°C (16 rpm horizontal rotation) with GST‐tagged bait proteins (2 μM of GST, GST‐FIP200 CD, GST‐ATG8A, GST‐GABARAP, GST‐AtUFM1, and GST‐HsUFM1). The beads were washed five times in 10 times the bead volume of HEPES buffer. The buffer was removed, and the beads were resuspended 1:20 in HEPES buffer. 10 μl of diluted beads was mixed with 20 μl of mCherry‐tagged binding partner at a concentration of 1.5 μM (0.5 μl bead slurry and 1 μM binding partner final concentrations) with or without competitor, as stated in the relative experiment. […]
(§2) From images acquired from a Zeiss LSM700 confocal microscope, the quantification of fluorescence was performed in ImageJ (Schindelin et al, [2012]) by drawing a line across each bead and taking the maximum gray value along the line. The maximum gray value for any given pixel represents the fluorescence intensity.
(§3) For images acquired from a Zeiss LSM800 confocal microscope, we used a custom Fiji Macro. […] In the end, the mean fluorescent intensities were exported out and used for quantification.
(§4) For each method, the fluorescence intensity was normalized against the mean of the control condition.

[2] = test system: GST-AtUFM1 / mCh-AtC53 interaction; assay: On-bead competition of the AtUFM1-AtC53 interaction; format: binding, Arabidopsis thaliana; settings: 1 μM AtC53; cAIM peptide 0-100 μM; 2 independent replicates containing 2 technical replicates
Procedure: as §1, §2, §3, §4

[3] = test system: GST-GABARAP / MBP-C53 interaction; assay: In vitro GST pulldown competition of the GABARAP-C53 interaction; format: binding, human; settings: cAIM peptide 200 μM; immunoblot read-out
Procedure: (§5) For pulldown experiments, 5 μl of glutathione magnetic agarose beads (Pierce Glutathione Magnetic Agarose Beads, Thermo Scientific) was equilibrated by washing them two times with wash buffer (100 mM Sodium Phosphate pH 7.2, 300 mM NaCl, 1 mM DTT, 0.01% (v/v) IGEPAL). Normalized E. coli clarified lysates or purified proteins were mixed, according to the experiment, added to the washed beads, and incubated on an end‐over‐end rotator for 1 h at 4°C. Beads were washed five times with 1 ml wash buffer. Bound proteins were eluted by adding 50 μl Laemmli buffer. Samples were analyzed by western blotting or Coomassie staining.

[4] = test system: GST-HsUFM1 / MBP-HsC53 interaction; assay: In vitro GST pulldown competition of the HsUFM1-HsC53 interaction; format: binding, Homo sapiens; settings: cAIM peptide 200 μM; immunoblot read-out
Procedure: as §5

[5] = test system: GST-GABARAP / mCh-HsC53 interaction; assay: On-bead competition of the GABARAP-HsC53 interaction; format: binding, human; settings: 1 μM HsC53; cAIM peptide 0-100 μM; 4 replicates
Procedure: as §1, §2, §3, §4

[6] = test system: GST-ATG8A / mCh-AtC53 interaction; assay: On-bead competition of the ATG8A-AtC53 interaction; format: binding, Arabidopsis thaliana; settings: 1 μM AtC53; cAIM peptide 0-100 μM; 2 independent replicates containing 2 technical replicates
Procedure: as §1, §2, §3, §4

ATG8A = target: T1, ATG8A (Arabidopsis thaliana, UniProt Q8LEM4); assay: Fluorescence anisotropy binding of TAMRA-labeled AtC53 IDR-derived peptides to ATG8A
T1 construct: made in house; host or cells: E. coli Rosetta2 (DE3) pLysS
Procedure: (§6) For fluorescence anisotropy measurements, all peptides were in‐house synthetized and HPLC purified attached to 5(6)‐Carboxytetramethylrhodamine (TAMRA) to its N‐terminal. Binding affinities of ATG8A or AtUFM1 to TAMRA‐labeled peptides were measured by the change in fluorescence anisotropy in an FS5 Spectrofluorometer (Edinburgh Instruments) with excitation at 550 nm (slit width 5 nm) and emission at 580 nm (slit width 5 nm). […] Binding curves were fitted using Prism Software (GraphPad).

AtUFM1 = target: T2, AtUFM1 (Arabidopsis thaliana, UniProt Q9CA23); assay: Fluorescence anisotropy binding of TAMRA-labeled AtC53 IDR-derived peptides to AtUFM1
T2 construct: made in house; host or cells: E. coli Rosetta2 (DE3) pLysS
Procedure: as §6

T1 sequence (Q8LEM4 whole entry): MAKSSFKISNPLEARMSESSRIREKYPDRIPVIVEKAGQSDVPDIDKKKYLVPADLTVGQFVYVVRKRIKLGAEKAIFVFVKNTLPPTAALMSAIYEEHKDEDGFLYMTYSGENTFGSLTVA
T2 sequence (Q9CA23 whole entry): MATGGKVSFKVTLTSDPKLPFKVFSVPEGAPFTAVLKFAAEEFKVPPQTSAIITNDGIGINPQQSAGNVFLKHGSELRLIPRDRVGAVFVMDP

Sequence: GPLHDDNEWNISVVDD [UBA5 LIR peptide]
- Complex formation with HsUFM1 by nMS (in words) (HsUFM1): forms a 1:1 complex
- Competition of the HsC53-HsUFM1 interaction (in words) [1]: able to disrupt

Sequence: EPLDFDWEIVLEEEM [cAIM peptide]
- Competition of the AtC53-AtUFM1 interaction (in words) [2]: could not outcompete
- Competition of the GABARAP-C53 interaction in pulldown (in words) [3]: outcompeted
- Complex formation with HsUFM1 by nMS (in words) (HsUFM1): did not appreciably interact; also recorded: negligible amount of 1:1 complex
- Competition of the HsC53-HsUFM1 interaction (in words) [1]: could not outcompete
- Competition of the HsUFM1-HsC53 interaction in pulldown (in words) [4]: cannot outcompete
- Competition of the HsC53-GABARAP interaction (in words) [5]: outcompeted
- Competition of the AtC53-ATG8A interaction (in words) [6]: outcompeted

Sequence: AADSIDADITVET [sAIM mut, sAIM mutant peptide where the tryptophan was mutated to alanine]
- Behaviour in fluorescence anisotropy titration with ATG8 (in words) (ATG8A; 50 nM TAMRA-labeled peptide, up to 320 μM ATG8A): did not show any change
- Behaviour in fluorescence anisotropy titration with UFM1 (in words) (AtUFM1; 50 nM TAMRA-labeled peptide, up to 320 μM AtUFM1): did not show any change

Sequence: AADSWDDIITVET [cAIM mut]
- Kd (ATG8A): 94.3 µM

Sequence: DVSEISWDVSVET [sAIM3]
- Kd (ATG8A): 176 µM

Sequence: AADSIDWDITVETPEIDWDVSMVEEV [sAIM1,2]
- Kd (AtUFM1): 148 µM
